Legend:
[1] = system: Aβ42; assay: In vivo efficacy: brain soluble Aβ42 in non-transgenic rodents (MSD electrochemiluminescence multiplex); design: species or system mouse; conditions: dose 30 mg/kg oral dosing, brain soluble fraction, animals sacrificed after 4 h; for response vs control in vivo at 30 mg/kg: Mus musculus, po, 4 h, untreated animals (Ctrl) set at 100, read-out: Aβ42 (% vs Ctrl)_Mean
Excerpt: (§1) To determine whether acute administration of an Aβ42 lowering agent would reduce Aβ42 levels in vivo, non-transgenic rodents, e.g. mice or rats were used. Animals treated with the Aβ42 lowering agent were examined and compared to those untreated or treated with vehicle and brain levels of soluble Aβ42, Aβ40, Aβ38, and Aβ37 were quantitated by Meso Scale Discovery's (MSD) electrochemiluminescence detection technology. Treatment periods varied from hours (h) to days and were adjusted based on the results of the Aβ42 lowering once a time course of onset of effect could be established.
(§2) A typical protocol for measuring Aβ42 lowering in vivo is shown but it is only one of many variations that could be used to optimize the levels of detectable Aβ. For example, Aβ42 lowering compounds were formulated in 20% of Captisol® (a sulfo-butyl ether of β-cyclodextrin) in water or 20% hydroxypropyl βcyclodextrin. The Aβ42 lowering agents were administered as a single oral dose or by any acceptable route of administration to overnight fasted animals. After 4 h, the animals were sacrificed and Aβ42 levels were analysed.
(§3) Blood was collected by decapitation and exsanguinations in EDTA-treated collection tubes. Blood was centrifuged at 1900 g for 10 minutes (min) at 4° C. and the plasma recovered and flash frozen for later analysis. The brain was removed from the cranium and hindbrain. The cerebellum was removed and the left and right hemisphere were separated. The left hemisphere was stored at −18° C. for quantitative analysis of test compound levels. The right hemisphere was rinsed with phosphate-buffered saline (PBS) buffer and immediately frozen on dry ice and stored at −80° C. until homogenization for biochemical assays.
(§4) Mouse brains from non-transgenic animals were resuspended in 8 volumes of 0.4% DEA (diethylamine)/50 mM NaCl containing protease inhibitors (Roche-11873580001 or 04693159001) per gram of tissue, e.g. for 0.158 g brain, add 1.264 ml of 0.4% DEA. All samples were homogenized in the FastPrep-24 system (MP Biomedicals) using lysing matrix D (MPBio #6913-100) at 6 m/s for 20 seconds. Homogenates were centrifuged at 20800×g for 5 min and supernatants collected. Supernatants were centrifuged at 221.300×g for 50 min. The resulting high speed supernatants were then transferred to fresh eppendorf tubes. Nine parts of supernatant were neutralized with 1 part 0.5 M Tris-HCl pH 6.8 and used to quantify Aβ.
(§5) To quantify the amount of Aβ42, Aβ40, Aβ38, and Aβ37 in the soluble fraction of the brain homogenates, simultaneous specific detection of Aβ42, Aβ40, Aβ38, and Aβ37 was performed using MSD's electro-chemiluminescence multiplex detection technology. In this assay purified monoclonal antibodies specific for Abeta37 (JRD/Aβ37/3), Abeta38 (J&JPRD/Aβ38/5), Abeta40 (JRF/cAβ40/28), and Abeta42 (JRF/cAβ42/26) were coated on MSD 4-plex plates. Briefly, the standards (a dilution of synthetic Aβ42, Aβ40, Aβ38, and Aβ37) were prepared in 1.5 ml Eppendorf tube in Ultraculture, with final concentrations ranging from 10000 to 0.3 pg/m. The samples and standards were co-incubated with Sulfo-tag labelled JRF/rAβ/2 antibody to the N-terminus of Aβ as detector antibody. 50 μl of conjugate/sample or conjugate/standards mixtures were then added to the antibody-coated plate. The plate was allowed to incubate overnight at 4° C. in order to allow formation of the antibody-amyloid complex. Following this incubation and subsequent wash steps the assay was finished by adding read buffer according to the manufacturer's instructions (Meso Scale Discovery, Gaitherburg, Md.).
(§6) The SULFO-TAG emits light upon electrochemical stimulation initiated at the electrode. MSD Sector instrument SI6000 was used for signal read-out.
In this model a Aβ42 lowering compared to untreated animals would be advantageous, in particular a Aβ42 lowering with at least 10%, more in particular a Aβ42 lowering with at least 20%. […]

[2] = system: Aβ38; assay: In vivo efficacy: brain soluble Aβ38 in non-transgenic rodents (MSD electrochemiluminescence multiplex); design: species or system mouse; conditions: dose 30 mg/kg oral dosing, brain soluble fraction, animals sacrificed after 4 h; for response vs control in vivo at 30 mg/kg: Mus musculus, po, 4 h, untreated animals (Ctrl) set at 100, read-out: Aβ38 (% vs Ctrl)_Mean
Excerpt: as §1, with “Aβ38 increasing agents” for “Aβ42 lowering agent”, “increase Aβ38” for “reduce Aβ42”, “MSD” for “Meso Scale Discovery's (MSD)”, “Aβ38 increase” for “Aβ42 lowering”
as §2, with “measuring Aβ38 increase” for “measuring Aβ42 lowering”, “example, Aβ38 increasing agents” for “example, Aβ42 lowering compounds”, “(a sulfobutyl” for “(a sulfo-butyl”, “The Aβ38 increasing” for “The Aβ42 lowering”, “and Aβ38” for “and Aβ42”
as §3, §4
as §5, with “(MesoScale” for “(Meso Scale”
as §6
In this model a Aβ38 increase compared to untreated animals would be advantageous, in particular a Aβ38 increase with at least 10%, more in particular a Aβ38 increase with at least 20%. […]

[3] = untreated animals (Ctrl) set at 100, 30 mg/kg

Row | Compound | response vs control in vivo at 30 mg/kg [1] [%] | response vs control in vivo at 30 mg/kg [2] [%] | Aβ42 (% vs Ctrl)_Mean [1, 3] [% vs Ctrl] | Aβ38 (% vs Ctrl)_Mean [2, 3] [% vs Ctrl]
1 | Cc1cn(-c2ccc3n(c2=O)C[C@@H](C)N(Cc2cc(N4CCOC(C(F)(F)F)C4)cc(C(F)(F)F)c2)C3=O)cn1 (mixture of isomers) [compound 153] | 100 | 108 | – | –
2 | Cc1cn(-c2ccc3n(c2=O)CC(C)N(C(C)c2cc(C(F)(F)F)cc(C(F)(F)F)c2)C3=O)cn1.Cl (single isomer, unassigned) [compound 111] | 35 | 136 | – | –
3 | Cc1cn(-c2ccc3n(c2=O)CC(C)N(C(C)c2cc(C(F)(F)F)cc(C(F)(F)F)c2)C3=O)cn1.Cl (single isomer, unassigned) [compound 112] | – | – | 55 | 153
4 | CCC(c1cc(OC)cc(C(F)(F)F)c1)N1C(=O)c2ccc(-n3cnc(C)c3)c(=O)n2C[C@H]1C (single isomer, unassigned) [compound 141] | 85 | 145 | – | –
5 | CCOc1cc(C(C)N2C(=O)c3ccc(-n4cnc(C)c4)c(=O)n3C[C@H]2C)cc(C(F)(F)F)c1 (single isomer, unassigned) [compound 143] | 123 | 122 | – | –
6 | Cc1cn(-c2ccc3n(c2=O)CCN(C(C)c2c[nH]c4cc(F)c(Cl)cc24)C3=O)cn1 (single isomer, unassigned) [compound 183] | 97 | 141 | – | –
7 | Cc1cn(-c2ccc3n(c2=O)CCN(C(C)c2cn(C)c4cc(F)c(Cl)cc24)C3=O)cn1 (single isomer, unassigned) [compound 185] | 68 | 170 | – | –
8 | Cc1cn(-c2ccc3n(c2=O)CC(C)N(C(C)c2cn(C)c4cc(F)c(Cl)cc24)C3=O)cn1 (single isomer, unassigned) [compound 189] | 116 | 116 | – | –
9 | CCn1cc(C(C)N2C(=O)c3ccc(-n4cnc(C)c4)c(=O)n3CC2C)c2cc(Cl)c(F)cc21 (single isomer, unassigned) [compound 192] | 39 | 147 | – | –
10 | Cc1cn(-c2ccc3n(c2=O)CC(C)N(C(C)c2cn(C(C)C)c4cc(F)c(Cl)cc24)C3=O)cn1 (single isomer, unassigned) [compound 194] | 39 | 197 | – | –
11 | Cc1cn(-c2ccc3n(c2=O)CC(C)N(C(C)c2c[nH]c4c(F)cc(Cl)cc24)C3=O)cn1 (single isomer, unassigned) [compound 219] | 76 | 119 | – | –
12 | Cc1cn(-c2ccc3n(c2=O)CC(C)N(Cc2cc(C(F)(F)F)cc(C(F)(F)F)c2)C3=O)cn1 (stereo not shown) [compound 3] | 51 | 133 | – | –
13 | Cc1cn(-c2ccc3n(c2=O)CC(C)N(Cc2cc(OCC4CC4)cc(C(F)(F)F)c2)C3=O)cn1.Cl (stereo not shown) [compound 6] | 73 | 118 | – | –
14 | Cc1cn(-c2ccc3n(c2=O)C[C@@H](C)N(CCc2cc(C(F)(F)F)cc(C(F)(F)F)c2)C3=O)cn1 [compound 50] | 99 | 160 | – | –
15 | Cc1cn(-c2ccc3n(c2=O)C[C@@H](C)N(Cc2cc(N4CCC(C)CC4)ccc2Cl)C3=O)cn1 [compound 80] | 148 | 133 | – | –
16 | Cc1cn(-c2ccc3n(c2=O)C[C@@H](C)N(Cc2cc(N4CCCC4)ccc2Cl)C3=O)cn1 [compound 82] | 103 | 118 | – | –
17 | Cc1cn(-c2ccc3n(c2=O)C[C@@H](C)N(Cc2cc(CC4CC4)cc(C(F)(F)F)c2)C3=O)cn1 [compound 110] | 88 | 102 | – | –
18 | Cc1cn(-c2ccc3n(c2=O)C[C@@H](C)N(Cc2cc(C4CC4)cc(C(F)(F)F)c2)C3=O)cn1 [compound 116] | 75 | 182 | – | –
19 | C[C@@H]1Cn2c(ccc(-n3cnc(Cl)c3)c2=O)C(=O)N1Cc1cc(C(F)(F)F)cc(C(F)(F)F)c1 [compound 118] | 92 | 140 | – | –
20 | Cc1cn(-c2ccc3n(c2=O)C[C@@H](C)N(Cc2cc(OC(C)C)nc(C(F)(F)F)c2)C3=O)cn1 [compound 128] | 60 | 162 | – | –
21 | COc1cccc(CN2C(=O)c3ccc(-n4cnc(C)c4)c(=O)n3C[C@H]2C)c1 [compound 132] | 104 | 84 | – | –
22 | Cc1cn(-c2ccc3n(c2=O)C[C@@H](C)N(Cc2ccc(F)c(F)c2)C3=O)cn1 [compound 133] | 87 | 84 | – | –
23 | Cc1cn(-c2ccc3n(c2=O)C[C@@H](C)N(Cc2cc(CC(F)(F)F)cc(C(F)(F)F)c2)C3=O)cn1 [compound 134] | 97 | 138 | – | –
24 | Cc1cn(-c2ccc3n(c2=O)C[C@@H](C)N(Cc2cc(OC(F)(F)F)cc(C(F)(F)F)c2)C3=O)cn1 [compound 140] | 42 | 96 | – | –
25 | Cc1cn(-c2ccc3n(c2=O)C[C@@H](C)N(Cc2cc(Br)cc(C(F)(F)F)c2)C3=O)cn1 [compound 145] | 71 | 102 | – | –
26 | Cc1cn(-c2cc(F)c3n(c2=O)C[C@@H](C)N(Cc2cc(C(F)(F)F)cc(C(F)(F)F)c2)C3=O)cn1 [compound 158] | 97 | 120 | – | –

From US20150141411A1, “SUBSTITUTED 3,4-DIHYDRO-2H-PYRIDO[1,2-A]PYRAZINE-1,6-DIONE DERIVATIVES USEFUL FOR THE TREATMENT OF (INTER ALIA) ALZHEIMER'S DISEASE” (Janssen Pharmaceuticals, Inc., priority 2012, published 2015)
